Source: ChEMBL document CHEMBL2380271, “Synthesis and biological evaluation of a class of quinolone triazoles as potential antimicrobial agents and their interactions with calf thymus DNA” (2013)
Values after ≈ are worked out from the molar mass of the structure shown.

Columns and labels:
Saccharomyces cerevisiae = test: Antifungal activity against Saccharomyces cerevisiae by NCCLS method; format: functional
Cyberlindnera jadinii = test: Antifungal activity against Candida utilis by NCCLS method; format: functional; details: Williopsis jadinii
Shigella dysenteriae = test: Antibacterial activity against Shigella dysenteriae by NCCLS method; format: functional
Pseudomonas aeruginosa = test: Antibacterial activity against Pseudomonas aeruginosa by NCCLS method; format: functional
Aspergillus flavus [1] = test: Ratio of Fluconazole MIC to compound MIC for Aspergillus flavus; format: functional
Escherichia coli = test: Antibacterial activity against Escherichia coli DH52 by NCCLS method; format: functional
Staphylococcus aureus [2] = test: Antibacterial activity against Staphylococcus aureus ATCC 25923 by NCCLS method; format: functional
Salmonella typhi = test: Antibacterial activity against Eberthella typhosa by NCCLS method; format: functional, Salmonella enterica subsp. enterica serovar Typhi; details: Salmonella enterica
Micrococcus luteus = test: Antibacterial activity against Micrococcus luteus ATCC 4698 by NCCLS method; format: functional
Aspergillus flavus [3] = test: Antifungal activity against Aspergillus flavus by NCCLS method; format: functional
Candida albicans = test: Antifungal activity against Candida albicans by NCCLS method; format: functional
Staphylococcus aureus [4] = test: Antibacterial activity against methicillin-resistant Staphylococcus aureus N315 by NCCLS method; format: functional
Staphylococcus aureus [5] = test: Ratio of norfloxacin MIC to compound MIC for methicillin-resistant Staphylococcus aureus N315; format: functional
Staphylococcus aureus [6] = test: Ratio of chloromycin MIC to compound MIC for methicillin-resistant Staphylococcus aureus N315; format: functional

Row | SMILES | MIC (Saccharomyces cerevisiae) [µg/mL] | MIC (Cyberlindnera jadinii) [µg/mL] | MIC (Shigella dysenteriae) [µg/mL] | MIC (Pseudomonas aeruginosa) [µg/mL] | Ratio (Aspergillus flavus [1]) | MIC (Escherichia coli) [µg/mL] | MIC (Staphylococcus aureus [2]) [µg/mL] | MIC (Salmonella typhi) [µg/mL] | MIC (Micrococcus luteus) [µg/mL] | MIC (Aspergillus flavus [3]) [µg/mL] | MIC (Candida albicans) [µg/mL] | MIC (Staphylococcus aureus [4]) [µg/mL] | Ratio (Staphylococcus aureus [5]) | Ratio (Staphylococcus aureus [6])
1 | CCOC(=O)c1cn(CC2CO2)c2c(F)cc(F)cc2c1=O (racemic) | 64 (≈ 207 µM) | > 512 | > 512 | 64 (≈ 207 µM) | 256 | 128 (≈ 414 µM) | 16 (≈ 51.7 µM) | 2 (≈ 6.47 µM) | 2 (≈ 6.47 µM) | 1 (≈ 3.23 µM) | 4 (≈ 12.9 µM) | 8 (≈ 25.9 µM) |  | 
2 | CCOC(=O)c1cn(CC2CO2)c2ccc(C)cc2c1=O (racemic) | 64 (≈ 223 µM) | 256 (≈ 891 µM) | 128 (≈ 446 µM) | 32 (≈ 111 µM) |  | 128 (≈ 446 µM) | 256 (≈ 891 µM) | 2 (≈ 6.96 µM) | 32 (≈ 111 µM) | 16 (≈ 55.7 µM) | 2 (≈ 6.96 µM) | 16 (≈ 55.7 µM) |  | 
3 | CCOC(=O)c1cn(CC2CO2)c2ccc(F)cc2c1=O (racemic) | 2 (≈ 6.87 µM) | 256 (≈ 879 µM) | 64 (≈ 220 µM) | 128 (≈ 439 µM) | 256 | 64 (≈ 220 µM) | 32 (≈ 110 µM) | 8 (≈ 27.5 µM) | 512 (≈ 1760 µM) | 1 (≈ 3.43 µM) | 16 (≈ 54.9 µM) | 4 (≈ 13.7 µM) |  | 
4 | CCOC(=O)c1cn(CC2CO2)c2cc(C(F)(F)F)ccc2c1=O (racemic) | 8 (≈ 23.4 µM) | > 512 | 256 (≈ 750 µM) | 64 (≈ 188 µM) | 256 | 64 (≈ 188 µM) | 256 (≈ 750 µM) | 2 (≈ 5.86 µM) | 128 (≈ 375 µM) | 0.5 (≈ 1.47 µM) | 4 (≈ 11.7 µM) | 0.5 (≈ 1.47 µM) | 16 | 32
5 | CCOC(=O)c1cn(CC2CO2)c2c(Cl)cc(Cl)cc2c1=O (racemic) | 8 (≈ 23.4 µM) | > 512 | > 512 | 0.5 (≈ 1.46 µM) | 256 | 32 (≈ 93.5 µM) | 1 (≈ 2.92 µM) | 2 (≈ 5.84 µM) | > 512 | 0.5 (≈ 1.46 µM) | 2 (≈ 5.84 µM) | 2 (≈ 5.84 µM) |  | 
6 | CCOC(=O)c1cn(CC2CO2)c2c(F)cccc2c1=O (racemic) | 4 (≈ 13.7 µM) | > 512 | 512 (≈ 1760 µM) | 256 (≈ 879 µM) | 256 | 16 (≈ 54.9 µM) | 2 (≈ 6.87 µM) | 2 (≈ 6.87 µM) | > 512 | 0.5 (≈ 1.72 µM) | 1 (≈ 3.43 µM) | 2 (≈ 6.87 µM) |  | 
7 | CCOC(=O)c1cn(CC(O)Cn2cncn2)c2c(F)cc(F)cc2c1=O (racemic) | 512 (≈ 1350 µM) | > 512 | 32 (≈ 84.6 µM) | 4 (≈ 10.6 µM) |  | 8 (≈ 21.1 µM) | 1 (≈ 2.64 µM) | 0.5 (≈ 1.32 µM) | 2 (≈ 5.29 µM) | 64 (≈ 169 µM) | 64 (≈ 169 µM) | 32 (≈ 84.6 µM) |  | 
8 | CCOC(=O)c1cn(CC(O)Cn2cncn2)c2ccc(C)cc2c1=O (racemic) | 64 (≈ 180 µM) | > 512 | 4 (≈ 11.2 µM) | 2 (≈ 5.61 µM) |  | 4 (≈ 11.2 µM) | 64 (≈ 180 µM) | 4 (≈ 11.2 µM) | 16 (≈ 44.9 µM) | 256 (≈ 718 µM) | 128 (≈ 359 µM) | 2 (≈ 5.61 µM) |  | 
9 | CCOC(=O)c1cn(CC(O)Cn2cncn2)c2ccc(F)cc2c1=O (racemic) | 512 (≈ 1420 µM) | 64 (≈ 178 µM) | 64 (≈ 178 µM) | 16 (≈ 44.4 µM) |  | 16 (≈ 44.4 µM) | 32 (≈ 88.8 µM) | 1 (≈ 2.78 µM) | 8 (≈ 22.2 µM) | 512 (≈ 1420 µM) | 32 (≈ 88.8 µM) | 8 (≈ 22.2 µM) |  | 
10 | O=C(N[C@H](CO)[C@H](O)c1ccc([N+](=O)[O-])cc1)C(Cl)Cl [CHLORAMPHENICOL] | > 512 | > 512 | 32 (≈ 99 µM) | 32 (≈ 99 µM) |  | 32 (≈ 99 µM) | 16 (≈ 49.5 µM) | 32 (≈ 99 µM) | 8 (≈ 24.8 µM) | > 512 | > 512 | 16 (≈ 49.5 µM) |  | 
11 | OC(Cn1cncn1)(Cn1cncn1)c1ccc(F)cc1F [FLUCONAZOLE] | 16 (≈ 52.2 µM) | 8 (≈ 26.1 µM) | > 512 | > 512 |  | > 512 | > 512 | > 512 | > 512 | 256 (≈ 836 µM) | 1 (≈ 3.27 µM) | > 512 |  | 
12 | CCn1cc(C(=O)O)c(=O)c2cc(F)c(N3CCNCC3)cc21 [NORFLOXACIN] | > 512 | > 512 | 4 (≈ 12.5 µM) | 1 (≈ 3.13 µM) |  | 16 (≈ 50.1 µM) | 0.5 (≈ 1.57 µM) | 4 (≈ 12.5 µM) | 2 (≈ 6.26 µM) | > 512 | > 512 | 8 (≈ 25.1 µM) |  | 
